Results on 40 compounds are retold here after US20250025443A1, “COMPOUNDS AND METHODS FOR TREATING CORONA VIRUSES” (CLEAR CREEK BIO, INC., priority 2021, published 2025).

Where only a bound is given, the exact number is not on record here.

One assay concerns the target SARS-CoV-2 Papain-Like Protease (PLpro) (Severe acute respiratory syndrome coronavirus 2 (2019-nCoV) (SARS-CoV-2), UniProt P0DTD1). Nature of the assay: biochemical. Particulars: PLpro enzymatic fluorescence assay; class symbols; read-out: PLpro IC50.
By IC50 is commonly meant the point on the concentration scale where inhibition reaches its midpoint. As for `Cc1ccc(NC2CN(C(=O)OC(C)(C)C)C2)cc1C(=O)NC(C)c1cccc2c1CCCC2` (stereo not shown) [Compound 181], the IC50 is more than 5000 nM. On the same count and under the same terms, the figure for `Cc1ccc(NC2CN(C(=O)OC(C)(C)C)C2)cc1C(=O)NC1(c2cccc(-c3ccccc3)c2)CC1` [Compound 188, tert-Butyl 3-((3-((1-([1,1′-biphenyl]-3-yl)cyclopropyl)carbamoyl)-4-methylphenyl)amino)azetidine-1-carboxylate] is more than 5000 nM.

Still in this assay, the particulars now being: SARS-CoV-2 PLpro enzymatic fluorescence assay; read-out: PLpro IC50.
Take `Cc1ccc(N)cc1C(=O)NC(c1cccc2ccccc12)C(F)(F)F` (stereo not shown) [Compound 183, 5-Amino-2-methyl-N-(2,2,2-trifluoro-1-(naphthalen-1-yl)ethyl)benzamide]: the IC50 lay in the range of 1000 to 5000 nM. Take `CN(Cc1ccc2[nH]ncc2c1)C1(c2cccc3ccccc23)CC1` [Compound 184, N-((1H-Indazol-5-yl)methyl)-N-methyl-1-(naphthalen-1-yl)cyclopropane amine]: the IC50 was more than 5000 nM. `Cc1ccc(N)cc1C(=O)NC(c1cccc2ccccc12)C(F)F` (stereo not shown) [Compound 185, 5-Amino-N-(2,2-difluoro-1-(naphthalen-1-yl)ethyl)-2-methylbenzamide]: the IC50 was in the range of 1000 to 5000 nM. `Cc1ccc(NC2CNC2)cc1C(=O)NC1(c2cccc(-c3ccc(CN4CCCC4)s3)c2)CC1` [Compound 186, 5-(Azetidin-3-ylamino)-2-methyl-N-(1-(3-(5-(pyrrolidin-1-ylmethyl)thiophen-2-yl)phenyl)cyclopropyl)benzamide]: the IC50 was in the range of 100 to 1000 nM. Same read-out and setting: the figure for `Cc1ccc(NC2CNC2)cc1C(=O)NC1(c2cccc(-c3ccccc3)c2)CC1` [Compound 187, N-(1-([1,1′-Biphenyl]-3-yl)cyclopropyl)-5-(azetidin-3-ylamino)-2-methylbenzamide] is 1000 to 5000 nM; for `Cc1cc2cc(CNC(=O)OC(C)(C)C)[nH]c2cc1C(=O)N[C@H](C)c1cccc2ccccc12` [Compound 189, (R)-tert-Butyl((5-methyl-6-((1-(naphthalen-1-yl)ethyl)carbamoyl)-1H-indol-2-yl)methyl)carbamate] it is more than 5000 nM. Same read-out and setting: the result for `Cc1cc2c(cc1C(=O)NC1(c3cccc4ccccc34)CC1)NC(CN)C2` (stereo not shown) [Compound 190, 2-(Aminomethyl)-5-methyl-N-(1-(naphthalen-1-yl)cyclopropyl)indoline-6-carboxamide] reads less than 100 nM; that for `Cc1ccc(N)cc1C(=O)NC1(c2cccc3ccccc23)COC1` [Compound 191, 5-Amino-2-methyl-N-(3-(naphthalen-1-yl)oxetan-3-yl)benzamide], 100 to 1000 nM.

For the compound `Cc1cc2cc(CN(C)C)n(CO)c2cc1C(=O)N[C@H](C)c1cccc2ccccc12` [Compound 192, (R)-2-((Dimethylamino)methyl)-1-(hydroxymethyl)-5-methyl-N-(1-(naphthalen-1-yl)ethyl)-1H-indole-6-carboxamide], the IC50 was in the range of 100 to 1000 nM. `Cc1cc2c(cc1C(=O)NC1(c3cccc4ccccc34)CC1)N1C(=O)NCC1C2` (stereo not shown) [Compound 194, 7-Methyl-N-(1-(naphthalen-1-yl)cyclopropyl)-3-oxo-2,3,9,9a-tetrahydro-1H-imidazo[1,5-a]indole-6-carboxamide]: the concentration for half-maximal inhibition (IC50) was in the range of 1000 to 5000 nM. Still for that read-out and setting: the result for `Cc1ccc(N)cc1C(=O)NC(C#N)c1cccc2ccccc12` (stereo not shown) [Compound 195, 5-Amino-N-(cyano(naphthalen-1-yl)methyl)-2-methylbenzamide] reads more than 5000 nM; that for `Cc1ccc(NC2CNC2)cc1C(=O)NC1(c2cccc(-c3ccc(CN[C@H]4CC[C@@H](O)C4)s3)c2)CC1` [Compound 196, 5-(Azetidin-3-ylamino)-N-(1-(3-(5-((((1S,3R)-3-hydroxycyclopentyl)amino)methyl)thiophen-2-yl)phenyl)cyclopropyl)-2-methylbenzamide], 100 to 1000 nM; that for `Cc1cc2cc(CN)oc2cc1C(=O)NC1(c2cccc3ccccc23)CC1` [Compound 197, 2-(Aminomethyl)-5-methyl-N-(1-(naphthalen-1-yl)cyclopropyl)benzofuran-6-carboxamide], less than 100 nM. In the case of `Cc1cc2cc(CN(C)C)oc2cc1C(=O)NC1(c2cccc3ccccc23)CC1` [Compound 198, 2-((Dimethylamino)methyl)-5-methyl-N-(1-(naphthalen-1-yl)cyclopropyl)benzofuran-6-carboxamide], the IC50 was 100 to 1000 nM. As to `Cc1cc2cc[nH]c2cc1C(=O)NC1(c2cccc3ccccc23)CC1` [Compound 199, 5-Methyl-N-(1-(naphthalen-1-yl)cyclopropyl)-1H-indole-6-carboxamide], the IC50 was in the range of 100 to 1000 nM.

For the compound `Cc1ccc(N)cc1C(=O)NC(CF)c1cccc2ccccc12` (stereo not shown) [Compound 200, 5-Amino-N-(2-fluoro-1-(naphthalen-1-yl)ethyl)-2-methylbenzamide], the IC50 fell in the range of 1000 to 5000 nM. For the compound `Cc1cc2ccn(C)c2cc1C(=O)NC1(c2cccc3ccccc23)CC1` [Compound 201, 1,5-Dimethyl-N-(1-(naphthalen-1-yl)cyclopropyl)-1H-indole-6-carboxamide], the IC50 was in the range of 100 to 1000 nM.

In the case of `Cc1cc2cc(CCN)[nH]c2cc1C(=O)NC1(c2cccc3ccccc23)CC1` [Compound 202, 2-(2-Aminoethyl)-5-methyl-N-(1-(naphthalen-1-yl)cyclopropyl)-1H-indole-6-carboxamide], the IC50 was 100 to 1000 nM. On the same count and under the same terms, the result for `Cc1cc2ccn(CCN)c2cc1C(=O)NC1(c2cccc3ccccc23)CC1` [Compound 203, 1-(2-Aminoethyl)-5-methyl-N-(1-(naphthalen-1-yl)cyclopropyl)-1H-indole-6-carboxamide] reads 100 to 1000 nM.

In the case of `Cc1cc2cc(C(=O)O)[nH]c2cc1C(=O)NC1(c2cccc3ccccc23)CC1` [Compound 204, 5-Methyl-6-((1-(naphthalen-1-yl)cyclopropyl)carbamoyl)-1H-indole-2-carboxylic acid], the IC50 was 100 to 1000 nM.

`Cc1cc2cc(C(N)=O)[nH]c2cc1C(=O)NC1(c2cccc3ccccc23)CC1` [Compound 205]: the IC50 fell in the range of 100 to 1000 nM.

For the compound `Cc1cc2cc(CN3CCOCC3)[nH]c2cc1C(=O)N[C@H](C)c1cccc2ccccc12` [Compound 206, (R)-5-Methyl-2-(morpholinomethyl)-N-(1-(naphthalen-1-yl)ethyl)-1H-indole-6-carboxamide], the IC50 lay within 1000 to 5000 nM.

With `Cc1cc2c(cc1C(=O)NC1(c3cccc4ccccc34)CC1)NCC2` [Compound 207, 5-Methyl-N-(1-(naphthalen-1-yl)cyclopropyl)indoline-6-carboxamide], the IC50 was 100 to 1000 nM.

Consider `Cc1cc2ccn(C)c2cc1C(=O)N(C)C1(c2cccc3ccccc23)CC1` [Compound 208, N,1,5-Trimethyl-N-(1-(naphthalen-1-yl)cyclopropyl)-1H-indole-6-carboxamide], for which the half-maximal inhibitory concentration (IC50) is more than 5000 nM. On the same count and under the same terms, the figure for `Cc1ccc(OCCN2CCOCC2)cc1C(=O)NC1(c2cccc3ccccc23)CC1` [Compound 209, 2-Methyl-5-(2-morpholinoethoxy)-N-(1-(naphthalen-1-yl)cyclopropyl)benzamide] is 100 to 1000 nM.

Take `Cc1cc2c(cc1C(=O)NC1(c3cccc4ccccc34)CC1)N(C)CC2` [Compound 210, 1,5-Dimethyl-N-(1-(naphthalen-1-yl)cyclopropyl)indoline-6-carboxamide]: the IC50 was in the range of 100 to 1000 nM.

Take `Cc1ccc(OCCN)cc1C(=O)N(C)C1(c2cccc3ccccc23)CC1` [Compound 211, 5-(2-Aminoethoxy)-N,2-dimethyl-N-(1-(naphthalen-1-yl)cyclopropyl)benzamide]: the IC50 was more than 5000 nM. `Cc1cc2c(C)c[nH]c2cc1C(=O)NC1(c2cccc3ccccc23)CC1` [Compound 212, 3,5-Dimethyl-N-(1-(naphthalen-1-yl)cyclopropyl)-1H-indole-6-carboxamide]: the IC50 was 100 to 1000 nM. Still for that read-out and setting: the figure for `Cc1cc2cc(CN3CCOCC3)[nH]c2cc1C(=O)NC1(c2cccc3ccccc23)CC1` [Compound 213, 5-Methyl-2-(morpholinomethyl)-N-(1-(naphthalen-1-yl)cyclopropyl)-1H-indole-6-carboxamide] is 1000 to 5000 nM; for `Cc1ccc(OCCN(C)C)cc1C(=O)NC1(c2cccc3ccccc23)CC1` [Compound 214, 5-(2-(Dimethylamino)ethoxy)-2-methyl-N-(1-(naphthalen-1-yl)cyclopropyl)benzamide] it is less than 100 nM. Regarding `Cc1ccc(OCCN)cc1C(=O)NC1(c2cccc3ccccc23)CC1` [Compound 215, 5-(2-Aminoethoxy)-2-methyl-N-(1-(naphthalen-1-yl)cyclopropyl)benzamide], the IC50 is less than 100 nM. Still for that read-out and setting: the figure for `Cc1cc(I)c(N)cc1C(=O)NC1(c2cccc3ccccc23)CC1` [Compound 216, 5-Amino-4-iodo-2-methyl-N-(1-(naphthalen-1-yl)cyclopropyl)benzamide] is 100 to 1000 nM; for `Cc1cc(C#Cc2ccccc2)c(N)cc1C(=O)NC1(c2cccc3ccccc23)CC1` [Compound 217, 5-Amino-2-methyl-N-(1-(naphthalen-1-yl)cyclopropyl)-4-(phenylethynyl)benzamide] it is more than 5000 nM.

With `Cc1cc2ccn(C3CNC3)c2cc1C(=O)NC1(c2cccc3ccccc23)CC1` [Compound 218, 1-(Azetidin-3-yl)-5-methyl-N-(1-(naphthalen-1-yl)cyclopropyl)-1H-indole-6-carboxamide], the concentration for half-maximal inhibition (IC50) was less than 100 nM. On the same count and under the same terms, the figure for `Cc1ccc(N)cc1C(=O)NC1(c2cccc3ccccc23)CCC1` [Compound 219, 5-Amino-2-methyl-N-(1-(naphthalen-1-yl)cyclobutyl)benzamide] is more than 5000 nM; for `CNCc1cc2cc(C)c(C(=O)NC3(c4cccc5ccccc45)CC3)cc2o1` [Compound 220, 5-Methyl-2-((methylamino)methyl)-N-(1-(naphthalen-1-yl)cyclopropyl)benzofuran-6-carboxamide] it is less than 100 nM.

Consider `CNCc1cc2cc(C)c(C(=O)NC3(c4cccc5ccccc45)CC3)cc2[nH]1` [Compound 221], for which the IC50 was less than 100 nM. On to `CNCCc1cc2cc(C)c(C(=O)NC3(c4cccc5ccccc45)CC3)cc2[nH]1` [Compound 222, 5-Methyl-2-(2-(methylamino)ethyl)-N-(1-(naphthalen-1-yl)cyclopropyl)-1H-indole-6-carboxamide], for which the IC50 lay within 100 to 1000 nM.
